The target of assay [1] is T1, EP4R (Homo sapiens, UniProt P35408).
T1 construct: Tango fusion cassette (only 'tango' is printed); expressed in transfected cells; host or cells: HTLA cells (tTA-dependent luciferase reporter, β-arrestin2-TEV fusion)
Nature of the assay: biochemical. It is filed as binding.

In assay [2] the target is T1, EP4R. The assay can be described thus: PRESTO-Tango β-arrestin2 recruitment assay. The class given is cell-based. Conditions: for antagonist activity at EP4R: concentration-response. (In general: Arrestin recruitment assays detect the binding of arrestin to an activated receptor.)
The target in another assay is wild-type EP4R (Homo sapiens, UniProt P35408). The assay can be described thus: cell-based.
Chain of wild-type EP4R (P35408 whole entry): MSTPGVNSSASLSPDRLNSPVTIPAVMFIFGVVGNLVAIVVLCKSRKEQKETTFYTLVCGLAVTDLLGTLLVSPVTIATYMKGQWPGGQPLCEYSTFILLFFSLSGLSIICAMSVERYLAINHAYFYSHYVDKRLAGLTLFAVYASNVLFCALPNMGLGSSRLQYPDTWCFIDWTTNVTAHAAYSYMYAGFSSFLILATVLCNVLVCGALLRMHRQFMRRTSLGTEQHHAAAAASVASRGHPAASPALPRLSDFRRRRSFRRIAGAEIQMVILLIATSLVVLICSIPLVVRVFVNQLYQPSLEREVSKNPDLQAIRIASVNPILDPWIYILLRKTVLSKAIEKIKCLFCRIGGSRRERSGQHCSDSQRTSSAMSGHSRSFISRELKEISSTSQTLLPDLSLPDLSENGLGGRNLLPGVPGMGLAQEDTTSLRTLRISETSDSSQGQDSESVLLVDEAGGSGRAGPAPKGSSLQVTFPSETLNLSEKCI
The mark [3] stands for this setting: read-out: % displacement of 3HPGE2 at 10 µM, 10 µM compound vs 10 nM 3H-PGE2.
Setting [4] is: PRESTO-Tango -logIC50, antagonist mode, EC80 of PGE2.
Setting [5] is: PRESTO-Tango IC50 (nM), antagonist mode, EC80 of PGE2.
The mark [6] stands for this setting: calculated using the Cheng Prusoff equation, read-out: PRESTO-Tango Ki*.
Where [7] appears, read: 10 µM compound vs 10 nM 3H-PGE2, read-out: % displacement of 3HPGE2 at 10 µM.
The mark [8] stands for this setting: calculated using the Cheng Prusoff equation, read-out: Arrestin-BRET Ki*.

Data on 26 compounds can be found in publication PMC10700596 (Nature Communications, 2023).

In general, IC50 refers to the concentration that inhibits the measured activity by half. The term Ki denotes a measure of affinity in units of concentration, obtained from inhibition or displacement.

Like-named read-outs stand apart in the source and are kept apart here.

T1 sequence (P35408 whole entry, the tested form may be a part): as the sequence (P35408 whole entry) above

As to `Cc1cc(C)cc(C2(C(=O)NC(C)c3ncc(C(=O)O)s3)CC2)c1` (stereo not shown) [Compound 54, CC(NC(=O)C1(CC1)C=2C=C(C)C=C(C)C2)C3=NC=C(S3)C(=O)O], the inhibition at 10 µM on EP4R [1] (setting [3]) turned out to be 3.6%.
As to `O=C(O)CCC(Cc1ccccc1)NS(=O)(=O)C=Cc1ccccc1Cl` (stereo not shown) [Compound 55, OC(=O)CCC(CC=1C=CC=CC1)NS(=O)(=O)C=CC=2C=CC=CC2Cl], the inhibition at 10 µM at EP4R [1] (setting [3]) is 7.6%.
As to `O=C(O)c1ccc(-c2ccc(C=C3CSc4ccc(F)cc4C3=O)o2)cc1O` [Compound 56, OC(=O)C=1C=CC(=CC1O)C2=CC=C(C=C3CSC=4C=CC(F)=CC4C3=O)O2], the inhibition at 10 µM on EP4R [1] (setting [3]) is 7.9%.
Consider `O=C(O)C1CC2(CC(NS(=O)(=O)C=Cc3ccc(F)cc3)CCS2)C1` (stereo not shown) [Compound 57, OC(=O)C1CC2(C1)CC(CCS2)NS(=O)(=O)C=CC=3C=CC(F)=CC3], for which the inhibition at 10 µM at EP4R [1] (setting [3]) worked out at 9%.
On to `CC(Sc1ccccc1Cl)C(=O)N1CCCC(Cc2nnn[nH]2)C1` (stereo not shown) [Compound 58, CC(SC=1C=CC=CC1Cl)C(=O)N2CCCC(CC3=NN=NN3)C2], for which, at EP4R [1] (setting [3]), the inhibition at 10 µM is 10.8%.
For the compound `CCSc1cc(C(=O)O)ccc1NC(=O)c1cnn(-c2ccccc2F)c1` [Compound 59, CCSC=1C=C(C=CC1NC(=O)C=2C=NN(C2)C=3C=CC=CC3F)C(=O)O], the inhibition at 10 µM on EP4R [1] (setting [3]) worked out at 11.6%.
`CC(C)(Oc1ccc(F)cc1)C(=O)N1CC(CC(=O)O)c2ccccc21` (stereo not shown) [Compound 60, CC(C)(OC=1C=CC(F)=CC1)C(=O)N2CC(CC(=O)O)C=3C=CC=CC23]: the inhibition at 10 µM at EP4R [1] (setting [3]) stood at 13.8%.
`O=C(O)CCC1CCCN(C(=O)c2nn(-c3ccccc3)c3c2CCC3)C1` (stereo not shown) [Compound 61, OC(=O)CCC1CCCN(C1)C(=O)C2=NN(C=3CCCC23)C=4C=CC=CC4]: on EP4R [1] (setting [3]), the inhibition at 10 µM came out at 15.1%.
Regarding `CN1C(=O)C(=Cc2cccc(OCC(=O)O)c2)c2cc(Br)cnc21` [Compound 62, CN1C(=O)C(=CC=2C=CC=C(OCC(=O)O)C2)C=3C=C(Br)C=NC13], the IC50 against EP4R [2] (setting [4]) was 3470 nM; against EP4R [2] (setting [5]) it was 3510 nM. Also, the Ki at EP4R [2] (PRESTO-Tango Ki* (nM)) worked out at 702 nM. Further, the “antagonist activity at EP4R” value at EP4R [2] is on record as “dose-dependent antagonist activity”. Also, the inhibition at 10 µM at EP4R [1] (setting [3]) was determined as 17.2%.
Take `CCc1ccc(C(=O)Nc2cccc(-c3nnn[nH]3)c2)c(C)n1` [Compound 63, CCC=1C=CC(C(=O)NC=2C=CC=C(C2)C3=NN=NN3)=C(C)N1]: the inhibition at 10 µM on EP4R [1] (setting [3]) is 19.3%.
On the same count and under the same terms, the figure for `Cc1ccc(-n2nc(C(=O)Nc3ccc(CC(=O)O)cc3)c3c2CCC3)cc1` [Compound 64, CC=1C=CC(=CC1)N2N=C(C(=O)NC=3C=CC(CC(=O)O)=CC3)C=4CCCC42] is 20%.
`O=C(O)CC1CN(C(=O)[C@@H]2C[C@]23CCOc2ccccc23)c2ccccc21` (stereo partly shown) [Compound 65, OC(=O)CC1CN(C(=O)[C@@H]2C[C@@]32CCOC=4C=CC=CC43)C=5C=CC=CC15] yielded an IC50 at EP4R [2] (setting [5]) of 5160 nM. On EP4R [2] (PRESTO-Tango Ki* (nM), calculated using the Cheng Prusoff equation), the Ki is 1030 nM. Also, the “antagonist activity at EP4R” value on EP4R [2] was “dose-dependent antagonist activity”. Also, the inhibition at 10 µM on EP4R [1] (read-out: 3H-PGE2 Displacement by 10 µM of docking hits (Displacment), 10 µM compound, individual replicate values (Figure 1B source data)) was determined as 23.4%; at EP4R [1] (setting [3]) it was 24%.
As for `O=C(NC1CCCC(C(=O)O)CC1)c1csc(C2CCCCC2)c1` (stereo not shown) [Compound 66, OC(=O)C1CCCC(CC1)NC(=O)C2=CSC(=C2)C3CCCCC3], the IC50 is 3720 nM at EP4R [2] (PRESTO-Tango -logIC50), 3760 nM at EP4R [2] (PRESTO-Tango IC50 (nM)) and 4050 nM against wild-type EP4R. Moreover, the Ki on EP4R [2] (setting [6]) was 752 nM; at wild-type EP4R (setting [8]), 810 nM. Moreover, the “antagonist activity at EP4R” value on EP4R [2] was “dose-dependent antagonist activity”. Also, at EP4R [1] (setting [7]), the inhibition at 10 µM was found to be 25.6%.
Regarding `Cn1nnnc1NCC(C(=O)OCc1ccccc1)c1ccccc1` (stereo not shown) [Compound 67, CN1N=NN=C1NCC(C(=O)OCC=2C=CC=CC2)C=3C=CC=CC3], the inhibition at 10 µM at EP4R [1] (setting [3]) was found to be 31.5%.
Regarding `O=C(O)Cc1ccc(NC(=O)c2cc(C3CC3)nc3ccc(F)cc23)cc1` [Compound 68, OC(=O)CC=1C=CC(NC(=O)C=2C=C(N=C3C=CC(F)=CC23)C4CC4)=CC1], the IC50 on EP4R [2] (setting [4]) is 11000 nM; against EP4R [2] (setting [5]), above 10000 nM. Moreover, at EP4R [2], the “antagonist activity at EP4R” value is given as “dose-dependent antagonist activity”. Further, the inhibition at 10 µM on EP4R [1] (setting [3]) stood at 31.8%.
Regarding `Cc1c(C(=O)N(C)c2nnn[nH]2)cnn1-c1ccc(Cl)cc1` [Compound 69, CN(C(=O)C=1C=NN(C1C)C=2C=CC(Cl)=CC2)C3=NN=NN3], on EP4R [1] (setting [3]), the inhibition at 10 µM was determined as 37.7%.
As to `N#Cc1ccc(OCc2cccc(C(=O)Nc3cccc(-c4nnn[nH]4)c3)c2)cc1` [Compound 70, O=C(NC=1C=CC=C(C1)C2=NN=NN2)C=3C=CC=C(COC=4C=CC(C#N)=CC4)C3], the IC50 at EP4R [2] (PRESTO-Tango -logIC50) is 14500 nM; on EP4R [2] (PRESTO-Tango IC50 (nM)), above 10000 nM. For the same compound, the “antagonist activity at EP4R” value at EP4R [2] is reported as “dose-dependent antagonist activity”. For the same compound, the inhibition at 10 µM on EP4R [1] (setting [3]) came to 56.2%.
On to `O=C(O)C1CCC2(CC1)CC(Nc1ncnc3sc4c(c13)CCCC4)C2` (stereo not shown) [Compound 71, OC(=O)C1CCC2(CC(C2)NC=3N=CN=C4SC=5CCCCC5C34)CC1], for which the results for the IC50 against EP4R [2] (PRESTO-Tango IC50 (nM)) and against wild-type EP4R were 850 nM and 899 nM, respectively. Moreover, the Ki at EP4R [2] (setting [6]) was 170 nM; at wild-type EP4R (setting [8]), 180 nM. Besides, the “antagonist activity at EP4R” value on EP4R [2] is “dose-dependent antagonist activity”. Moreover, the inhibition at 10 µM on EP4R [1] (setting [7]) was determined as 62.9%. Further, the ligand efficiency at wild-type EP4R came out at 0.35 kcal/mol per “heavy” atom.
As for `O=C(O)C1CCC2(CC1)CC(Nc1ncnc3sc4ccccc4c13)C2` (stereo not shown) [Compound 72, OC(=O)C1CCC2(CC(C2)NC=3N=CN=C4SC=5C=CC=CC5C34)CC1], the IC50 against EP4R [2] (PRESTO-Tango IC50 (nM)) was 444 nM; at wild-type EP4R, 514 nM. In addition, the Ki on EP4R [2] (setting [6]) is 89 nM; on wild-type EP4R (setting [8]), 103 nM.
`O=C(O)C1CCC2(CC1)CC(Nc1ncnc3[nH]c4ccccc4c13)C2` (stereo not shown) [Compound 73, OC(=O)C1CCC2(CC(C2)NC=3N=CN=C4NC=5C=CC=CC5C34)CC1]: the values for the IC50 against EP4R [2] (PRESTO-Tango IC50 (nM)) and against wild-type EP4R were 548 nM and 146 nM, respectively. The Ki on EP4R [2] (setting [6]) is 110 nM; on wild-type EP4R (setting [8]), 29 nM. At wild-type EP4R, this compound gave a ligand efficiency of 0.40 kcal/mol per “heavy” atom.
On EP4R [2] (PRESTO-Tango IC50 (nM)), `Cn1c2ccccc2c2c(NC3CC4(CCC(C(=O)O)CC4)C3)ncnc21` (stereo not shown) [Compound 75, CN1C=2C=CC=CC2C=3C(NC4CC5(C4)CCC(CC5)C(=O)O)=NC=NC13] had an IC50 of 607 nM. The compound further yielded a Ki at EP4R [2] (PRESTO-Tango Ki* (nM)) of 121 nM. Also, at wild-type EP4R, 813 nM corresponded to half-maximal inhibition (IC50), the Ki was found to be 163 nM and the “reduced potency of analog” value was “up to 10 fold”.
With `O=C(N[C@@H]1CC[C@@H](C(=O)O)CCC1(F)F)c1c[nH]c(-c2ccccc2)c1` [Compound 80, OC(=O)[C@@H]1CC[C@@H](NC(=O)C2=CNC(=C2)C=3C=CC=CC3)C(F)(F)CC1], the results for the half-maximal inhibitory concentration (IC50) on EP4R [2] (setting [4]) and at EP4R [2] (setting [5]) were 18600 nM and above 10000 nM, respectively. Moreover, the Ki on EP4R [1] was determined as 1380 nM.
The corresponding values for `Cc1cc(C(=O)NC2CCCC(C(=O)O)CC2)c(C)n1-c1ccc2c(c1)OCCO2` (stereo not shown) [Compound 81, CC1=CC(C(=O)NC2CCCC(CC2)C(=O)O)=C(C)N1C=3C=CC=4OCCOC4C3] are 35500 nM, above 10000 nM and 1170 nM.
As to `O=C(O)C1CCC2(CC1)CC(Nc1ncnc3[nH]c4cc(F)ccc4c13)C2` (stereo not shown) [Compound 134, OC(=O)C1CCC2(CC(C2)NC=3N=CN=C4NC=5C=C(F)C=CC5C34)CC1], the IC50 against EP4R [2] (PRESTO-Tango IC50 (nM)) was determined as 203 nM; on wild-type EP4R, 155 nM. Further, the Ki at EP4R [2] (PRESTO-Tango Ki* (nM)) was 41 nM; at wild-type EP4R it was 31 nM.
`O=C(O)C1CCC2(CC1)CC(Nc1ncnc3[nH]c4ccc(Br)cc4c13)C2` (stereo not shown) [Compound 135, OC(=O)C1CCC2(CC(C2)NC=3N=CN=C4NC=5C=CC(Br)=CC5C34)CC1]: the IC50 on EP4R [2] (PRESTO-Tango IC50 (nM)) was determined as 91.5 nM; against wild-type EP4R, 136 nM. The Ki on EP4R [2] (PRESTO-Tango Ki* (nM)) was determined as 18.3 nM; at wild-type EP4R it was 27.2 nM.
On to `CC(C(=O)Nc1cc(C#N)ccc1CCCC(=O)O)c1ccc(F)c2ccccc12` (stereo not shown) [ONO-AE3-208, reference compound], for which the inhibition constant Ki at wild-type EP4R (setting [8]) was 1.3 nM.
